Calls of active or inactive are those of the source. For most assays here, no stated cut-off is given here; in the data, actives have a measured EC50 and inactives only a lower limit.
How the values were obtained:
[1] = inhibitors of intracellular T. cruzi replication, confirmation, NIH3T3 host cells, beta-gal luminescence (AID 2044); format: functional, cell-based;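 further: intracellular parasites grown in NIH/3T3 mouse fibroblasts as host cells; luminescent beta-galactosidase reporter signal from transgenic T. cruzi replicating inside host cells; inhibitors lower the luminescence signal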
[2] = cytotoxicity toward NIH3T3 fibroblasts, dose response, counter-screen, cell-based, ATP luminescence, mouse fibroblasts (AID 2010); format: functional;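 further: cells exposed to compound for about 90 hours before reading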
[3] = target: Cytochrome P450 3A4 (Homo sapiens, UniProt P08684);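 further: CYP3A4 tested as one member of a cytochrome P450 panel screen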
[4] = target: Cytochrome P450 2C9 (Homo sapiens, UniProt P11712)
[5] = target: T1, Cytochrome P450 1A2 (Homo sapiens, UniProt P05177);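 further: PubChem cytochrome P450 panel assay, CYP1A2 panel member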
T1 sequence (P05177 whole entry): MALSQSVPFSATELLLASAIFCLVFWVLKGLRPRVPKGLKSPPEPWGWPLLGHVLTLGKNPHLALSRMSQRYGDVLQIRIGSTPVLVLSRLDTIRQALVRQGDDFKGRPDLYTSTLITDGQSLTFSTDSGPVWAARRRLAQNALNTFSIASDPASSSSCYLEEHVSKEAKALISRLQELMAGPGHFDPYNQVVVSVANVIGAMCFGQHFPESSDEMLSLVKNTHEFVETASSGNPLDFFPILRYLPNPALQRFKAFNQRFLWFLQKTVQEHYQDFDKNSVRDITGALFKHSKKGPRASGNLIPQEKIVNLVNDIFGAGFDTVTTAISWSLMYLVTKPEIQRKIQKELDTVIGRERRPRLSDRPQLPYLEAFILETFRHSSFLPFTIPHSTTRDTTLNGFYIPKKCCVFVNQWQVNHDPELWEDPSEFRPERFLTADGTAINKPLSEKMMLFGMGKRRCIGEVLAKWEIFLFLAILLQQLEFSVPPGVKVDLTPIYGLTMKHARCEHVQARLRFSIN

[6] = target: T2, Streptokinase A (Streptococcus pyogenes serotype M1, UniProt P10520); experiment: S. pyogenes streptokinase expression inhibitors, potency, dose response, plasminogen activation absorbance, OD405 (AID 1914); format: functional, Streptococcus pyogenes M1 GAS;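 further: secreted streptokinase activity via plasminogen activation per viability signal from cell pellet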
T2 sequence (P10520 whole entry): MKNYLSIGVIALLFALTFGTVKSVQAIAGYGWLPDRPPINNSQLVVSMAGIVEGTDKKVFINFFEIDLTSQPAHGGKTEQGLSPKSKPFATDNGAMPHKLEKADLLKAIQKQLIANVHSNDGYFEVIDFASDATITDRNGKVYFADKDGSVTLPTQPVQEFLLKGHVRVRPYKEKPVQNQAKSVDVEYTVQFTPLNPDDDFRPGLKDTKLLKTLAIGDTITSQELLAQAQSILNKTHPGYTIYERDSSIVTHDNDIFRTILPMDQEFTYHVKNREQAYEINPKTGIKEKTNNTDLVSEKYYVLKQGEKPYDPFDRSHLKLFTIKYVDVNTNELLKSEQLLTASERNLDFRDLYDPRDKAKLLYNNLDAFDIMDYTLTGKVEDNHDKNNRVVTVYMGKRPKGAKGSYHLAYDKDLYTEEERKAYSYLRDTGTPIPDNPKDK

[7] = system: Streptococcus sp. 'group A'; experiment: growth inhibition of control SK(-) GAS strain, dose response, counter-screen for streptokinase expression inhibitor project, luminescence, kanamycin, BacTiterGlo, confirmation (AID 1900); format: functional, organism-based
[8] = system: Streptococcus; experiment: Group A Streptococcus viability loss, dose response, counter-screen for streptokinase expression inhibitor project, luminescence, BacTiterGlo (AID 1915); format: functional, organism-based;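 further: potency for reduction of bacterial viability or growth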

Sequence of Cytochrome P450 3A4 (P08684 whole entry): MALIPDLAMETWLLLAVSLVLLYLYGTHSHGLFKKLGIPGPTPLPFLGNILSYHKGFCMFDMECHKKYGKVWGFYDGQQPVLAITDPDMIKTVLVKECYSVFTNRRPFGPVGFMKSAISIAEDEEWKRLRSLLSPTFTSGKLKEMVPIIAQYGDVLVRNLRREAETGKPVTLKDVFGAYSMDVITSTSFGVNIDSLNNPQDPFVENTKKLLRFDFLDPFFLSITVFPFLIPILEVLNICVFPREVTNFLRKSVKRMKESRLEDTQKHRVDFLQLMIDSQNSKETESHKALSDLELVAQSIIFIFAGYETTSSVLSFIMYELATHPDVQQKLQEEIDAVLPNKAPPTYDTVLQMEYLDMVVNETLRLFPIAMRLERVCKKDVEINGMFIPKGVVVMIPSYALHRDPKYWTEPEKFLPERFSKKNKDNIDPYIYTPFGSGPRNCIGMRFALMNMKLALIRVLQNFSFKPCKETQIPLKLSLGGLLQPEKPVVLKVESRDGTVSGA
Sequence of Cytochrome P450 2C9 (P11712 whole entry): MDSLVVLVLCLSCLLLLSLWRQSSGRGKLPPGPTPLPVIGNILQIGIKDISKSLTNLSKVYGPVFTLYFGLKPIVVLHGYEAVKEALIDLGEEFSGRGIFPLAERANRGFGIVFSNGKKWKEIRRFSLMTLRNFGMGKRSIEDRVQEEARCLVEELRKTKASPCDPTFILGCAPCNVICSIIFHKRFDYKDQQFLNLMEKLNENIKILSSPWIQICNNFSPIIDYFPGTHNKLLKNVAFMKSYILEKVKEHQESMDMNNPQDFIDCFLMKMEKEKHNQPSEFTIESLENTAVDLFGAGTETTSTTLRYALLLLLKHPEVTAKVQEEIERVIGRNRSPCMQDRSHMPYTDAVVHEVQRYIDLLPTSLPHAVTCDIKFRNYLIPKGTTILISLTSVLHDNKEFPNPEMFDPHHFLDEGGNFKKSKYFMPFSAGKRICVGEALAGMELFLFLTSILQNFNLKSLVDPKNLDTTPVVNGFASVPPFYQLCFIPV

With `CCCCNc1c(-c2ccc(SC3CCCCC3)c(OC)c2)nc2ccc(Cl)cn12` the EC50 [1] was 1.43 µM (active) and the EC50 [2] was > 60 µM (not active).
For `COc1ccc(OC)c(NC(=O)Cn2cccc2)c1`, the AC50 [3] was 15.8 µM (inconclusive) and the AC50 [4] was 31.6 µM (inconclusive).
For `COc1ccc(/C=C/C(=O)Nc2cc(C)nn2-c2nc3ccccc3[nH]2)cc1`, the EC50 [1] was 1.71 µM (active) and the EC50 [2] was 9.28 µM (active).
In the case of `c1ccc2c(NC3C4CC5CC(C4)CC3C5)nc(N3CCOCC3)nc2c1` (stereo not drawn), the EC50 [1] is reported as 1.39 µM (active) and the EC50 [2] is reported as > 30 µM (not active).
In the case of `Cc1ccc2c(c1)N(CCC(=O)NCc1ccc3c(c1)OCO3)C(=O)CO2`, the AC50 [4] is reported as 0.00562 µM (inconclusive).
For `O=C(c1ccncc1)N1CCC2(CC1)CCN(c1ncccn1)CC2`, the AC50 [5] was 20 µM (inconclusive).
For `CCOC(=O)c1cc2c(ccn2C)n1CC(=O)N1CCCC(C)C1` (stereo not drawn), the AC50 [5] was 20 µM (inconclusive).
With `COc1ccc(-c2cc3nc[nH]c(=O)c3s2)cc1` the EC50 [6] was > 150 µM (not active).
For `CC(=O)N(CCCN(C)C)CCC(C)CCC=C(C)C` (stereo not drawn), the EC50 [1] was 0.324 µM (active) and the EC50 [2] was > 60 µM (not active).
With `COc1ncc2nc(-c3cc(F)cc(F)c3)c(=O)n(-c3ccccc3)c2n1` the AC50 [5] was 1.26 µM (inconclusive).
With `COc1ccc(NC(=O)N2CC[C@@]3(CCCN(C(=O)c4csnn4)C3)C2)cc1` the AC50 [3] was 31.6 µM (inconclusive).
For `Cc1ccc(S(=O)(=O)Nc2ccccc2C(=O)c2ccc(C)c(C)c2)cc1`, the AC50 [5] was 0.631 µM (inconclusive).
With `COc1ccc(O[C@H]2C=C[C@@H](c3ccccc3)O[C@@H]2CON=C(C)C)cc1` the AC50 [3] was 3.98 µM (inconclusive).
For `O=c1c(-c2cc(F)cc(F)c2)nc2cnc(N3CCOCC3)nc2n1C1CC1`, the AC50 [5] was 1 µM (inconclusive).
In the case of `Cc1nc2cnc(N(C)C)nc2n(C2CC2)c1=O`, the AC50 [4] is reported as 15.8 µM (inconclusive).
In the case of `CSc1nsc(SC)c1NC(=O)Nc1ccccn1`, the AC50 [4] is reported as 22.4 µM (inconclusive).
With `CN(c1ccc(C(=O)NC2CC3CCC2C3)cc1)S(C)(=O)=O` (stereo not drawn) the AC50 [3] was 15.8 µM (inconclusive).
In the case of `C[C@@H](C(=O)NCCF)[C@H]1C[C@]1(C)[C@H](NC(=O)OCc1ccccc1)c1ccccc1`, the AC50 [5] is reported as 15.8 µM (inconclusive) and the AC50 [4] is reported as 25.1 µM (inconclusive).
With `OC(COc1ccc(OCc2ccccc2)cc1)CN1CCCCC1` (stereo not drawn) the EC50 [1] was 21.4 µM (active) and the EC50 [2] was > 60 µM (not active).
With `Cc1cc(C)cc(Nc2c([N+](=O)[O-])nn(-c3ccc4c(c3)OCCO4)[n+]2[O-])c1` the EC50 [1] was 0.16 µM (active) and the EC50 [2] was > 60 µM (not active).
With `Clc1ccc(CSc2nccn2Cc2ccccc2)cc1` the EC50 [7] was 33 µM (active), the EC50 [6] was 24.2 µM (inconclusive) and the EC50 [8] was > 150 µM (not active). The AC50 [4] was 22.4 µM (inconclusive).
In the case of `COc1ccc(-c2cc3ncnc(O)c3s2)cc1`, the EC50 [7] is reported as 3.63 µM (active) and the EC50 [8] is reported as 17.8 µM (active).
For `Cc1cccc(NC(=O)Cn2cccc2)c1`, the AC50 [3] was 22.4 µM (inconclusive).
In the case of `CC(=O)OC[C@H]1O[C@@H](O/N=C(\C)CCN2CCc3nc(-c4ccccc4)c(-c4ccccc4)cc3C2)[C@H](OC(C)=O)[C@@H](OC(C)=O)[C@H]1OC(C)=O`, the AC50 [3] is reported as 5.01 µM (inconclusive).
For `O=C(NNC(=O)c1ccccc1)C(=O)N1CCCCC1`, the AC50 [4] was 0.00562 µM (inconclusive).
With `O=C(Nc1ccccc1)c1ccccc1CC[N+](=O)[O-]` the AC50 [3] was 7.94 µM (inconclusive).
For `CC(=O)N1CCC[C@@]2(CCN(c3ccccc3)C2)C1`, the AC50 [3] was 25.1 µM (inconclusive).
For `O=C(Nc1nnc(C2=COCCO2)o1)c1ccc([N+](=O)[O-])s1`, the EC50 [7] was 18.1 µM (active), the EC50 [6] was > 150 µM (not active) and the EC50 [8] was > 150 µM (not active).
With `CCOC(=O)c1nn(-c2ccccc2)c(-c2ccccc2)c1C(=O)c1ccccc1` the AC50 [3] was 15.8 µM (inconclusive).
For `C/C(=C\c1ccc(Cl)cc1)C(C)(C)C(=O)O`, the AC50 [4] was 3.16 µM (inconclusive).
With `CCc1ccc(NC(=O)CSc2nc3cc(C(=O)OC)ccc3c(=O)n2Cc2ccco2)cc1` the AC50 [3] was 3.98 µM (inconclusive) and the AC50 [4] was 28.2 µM (inconclusive).
For `C/C(N)=C(/C#N)C(=O)CSc1nc(-c2ccccc2)c(-c2ccccc2)o1`, the EC50 [1] was 1.43 µM (active) and the EC50 [2] was > 60 µM (not active).
In the case of `CCOc1ccc(C(F)(F)F)cc1NC(C)=O`, the AC50 [4] is reported as 31.6 µM (inconclusive).
With `Cc1ccccc1OCC(=O)N/N=C1\CCOc2c(C)cccc21` the AC50 [3] was 3.16 µM (inconclusive).
In the case of `Cc1ccc(CN2CC34C=CC(O3)C(C(=O)NCc3ccco3)C4C2=O)cc1` (stereo not drawn), the AC50 [5] is reported as 20 µM (inconclusive).
In the case of `CCOc1ccc(CN2CCN(Cc3cnc(-c4ccccc4)s3)CC2CCO)cc1` (stereo not drawn), the EC50 [1] is reported as 0.201 µM (active) and the EC50 [2] is reported as > 60 µM (not active).
In the case of `O=[N+]([O-])c1ccc(S(=O)(=O)Nc2ccc(-c3ccc(N4CCCC4)nn3)cc2)cc1`, the EC50 [1] is reported as 0.159 µM (active) and the EC50 [2] is reported as > 60 µM (not active).
In the case of `C/C(Cn1cnc([N+](=O)[O-])n1)=N\NC(=O)c1ccccc1O`, the EC50 [1] is reported as 1.73 µM (active) and the EC50 [2] is reported as > 60 µM (not active).
With `CC(C)c1ccc2oc(-c3cc(N)ccc3O)nc2c1` the EC50 [1] was 2.88 µM (active) and the EC50 [2] was 10.8 µM (active).
For `COc1ccc(CC(=O)Nc2nc(-c3ccncc3)cs2)cc1`, the EC50 [1] was 2.74 µM (active) and the EC50 [2] was > 60 µM (not active).
With `N#CCCn1c(=O)c(-c2cc(F)cc(F)c2)nc2cnc(N3CCOCC3)nc21` the AC50 [5] was 3.16 µM (inconclusive) and the AC50 [3] was 20 µM (inconclusive).
In the case of `COCCCNCCCOc1ccc(C(C)(C)c2ccccc2)cc1`, the EC50 [1] is reported as 0.567 µM (active) and the EC50 [2] is reported as > 60 µM (inconclusive).
In the case of `COc1ccc(-c2nc3cnc(N4CCN(C)CC4)nc3n(-c3ccc(OC)cc3)c2=O)cc1`, the AC50 [5] is reported as 15.8 µM (inconclusive) and the AC50 [4] is reported as 39.8 µM (inconclusive).
For `O=c1ccn([C@@H]2O[C@@H](COP(=O)(O)OP(=O)(O)O)[C@H](O)[C@@H]2O)c(=O)[nH]1`, the AC50 [3] was 0.794 µM (inconclusive).
In the case of `CN(C)C=O.COCCn1c(SCc2nc(O)c3c(C)c(C(=O)OC)sc3n2)nc2ccccc21`, the EC50 [7] is reported as 6.06 µM (active), the EC50 [6] is reported as > 150 µM (not active) and the EC50 [8] is reported as 101 µM (active). For the same compound, the AC50 [5] was 25.1 µM (inconclusive).
With `Cc1ccc(Cn2nnc3c(=O)[nH]c(C4CCN(S(=O)(=O)c5cc(C)ccc5C)CC4)nc32)cc1` the EC50 [6] was 21.4 µM (active).
In the case of `COc1cc(/C=N/N=c2\[nH]c3ccccc3s2)cc([N+](=O)[O-])c1O`, the EC50 [6] is reported as > 150 µM (not active).
With `CCOC(=O)/C(=N\Nc1ccc(Cl)cc1)c1csc(Nc2ccccc2)n1` the EC50 [7] was 6.05 µM (active), the EC50 [6] was 20.9 µM (active) and the EC50 [1] was 1.48 µM (active). The EC50 [2] was > 60 µM (not active) and the EC50 [8] was 37 µM (active).
With `CN(C)C(=O)c1ccc(-c2cc(N(C)Cc3ccco3)ncn2)cc1` the AC50 [5] was 25.1 µM (inconclusive).
For `COC(=O)C[C@@H]1O[C@H]1[C@H](C)[C@@H](OC)C(C)C`, the AC50 [4] was 3.16 µM (inconclusive).
With `Cc1ccc(S(=O)(=O)N[C@H]2COC(=O)[C@H](C)COC(=O)[C@H](C)NC(=O)C/C=C\[C@H]2C)cc1` the AC50 [3] was 3.98 µM (inconclusive).
In the case of `Cc1nn(Cc2cccc(Oc3ccccc3)c2)c(C)c1NC(=O)NC12CC3CC(CC(C3)C1)C2`, the EC50 [1] is reported as 1.29 µM (active) and the EC50 [2] is reported as > 60 µM (not active).
For `Cc1ccc(Cn2nnc3c(O)nc(C4CCN(S(=O)(=O)c5cc(C)ccc5C)CC4)nc32)cc1`, the EC50 [7] was 9.94 µM (active) and the EC50 [8] was 96 µM (active).
In the case of `COc1cc(/C=N/Nc2nc3ccccc3s2)cc([N+](=O)[O-])c1O`, the EC50 [7] is reported as 9.74 µM (active) and the EC50 [8] is reported as > 150 µM (not active).
For `Cc1ccc(NC(=S)N(CCCN2CCOCC2)Cc2cccnc2)cc1C`, the EC50 [1] was 1.19 µM (active) and the EC50 [2] was 10.9 µM (active).
In the case of `COC(=O)C/C=C\[C@@H](C)[C@@H](/C=N\OCC[C@H]1C=C[C@H](OC(C)=O)[C@@H](COC(C)=O)O1)NS(=O)(=O)c1ccc(C)cc1`, the AC50 [4] is reported as 5.01 µM (inconclusive).
With `Cc1cc(C)n2nc(-c3ccsc3-n3c(C)ccc3C)cc2n1` the EC50 [1] was 2.77 µM (active) and the EC50 [2] was > 60 µM (not active).
